Patent publication US12599560B2, “Lipids and lipid nanoparticle formulations” (Longuide Biopharma Corporation, priority 2023, dated 2026)

What was measured:
mice = assay: In vivo delivery of FLuc-mRNA lipid nanoparticle preparations in mice (IVIS imaging); set-up: In vivo IVIS / In vivo IVIS (liver) / In vivo IVIS (spleen): unit not given here
Procedure, shortened: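 FLuc-mRNA LNPs given intramuscularly into thigh rectus femoris or intravenously via tail vein, about 75 μL per mouse, 3 mice. D-Luciferin (200 μL, 15 mg/mL) injected i.p. 10–15 min before IVIS imaging at set times after dosing.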

[1] = Osmotic pressure by freezing point osmometer; assay type: physicochemical; details: formulation No. 1, molar ratio 1.50:20:33.50:45.00
Description: 50 μL of the nucleic acid lipid nanoparticle solution (containing about 0.04 mg/mL mRNA) was taken and the osmotic pressure of the nanopreparation was detected by freezing point penetrometer (Gonotec GmbH, OSMOMAT 3000-D).

A549 cells = assay: Cytotoxicity assay (CCK-8), A549; assay type: cell-based
Description: (§1) A549 cells were digested and collected the day before treatment and the cell concentration was adjusted to 2*10^5 cells/mL, 200 μL cell culture medium with a concentration of 2*10^5 cells/mL was added to the 96-well plate, resulting in approximately 4*10^4 cells per well in the 96-well plate. Digested and collected DC2.4 cells and adjusted the cell concentration to 1*10^5 cells/mL, added 200 μL cell culture medium with a concentration of 1*10^5 cells/mL to the 96-well plate, so that the number of cells per well in the 96-well plate is approximately 2*10^4. The cells were incubated in a cell culture incubator (Esco Micro Pte Ltd, Singapore, CLM-170B-8-NF) at 37° C. 5% CO2 for 24 h.
(§2) On the day of cell treatment, the medium (Thermo Fisher Scientific) was aspirated from the 96-well plate, 200 μL of PBS was added to each well to rinse the cells and then the PBS (Thermo Fisher Scientific) was removed, and 180 μL of opti-MEM (Thermo Fisher Scientific) was added to each well of the treatment group.
(§3) Different volumes of the preparation were taken and diluted by adding the buffer used for the preparation or the buffer used for dialysis, and four dosing concentrations were prepared for each preparation, and 20 μL of the diluted nanopreparation was added to each well of a 96-well plate (3 replicate wells for each concentration), and the dosing concentrations of the preparation were about 50 ng mRNA/well, 100 ng mRNA/well, 200 ng mRNA/well, and 300 ng mRNA/well, respectively.
(§4) The 96-well cell culture plate was placed in a cell culture incubator and incubated at 37° C. 5% CO2 for 4 h. The medium was sucked up, and 200 μL of DMEM complete medium was added to each well and incubated for 20 h for detection.
(§5) Diluted CCK-8 detection reagent (Shanghai Beyotime Biotechnology Co., Ltd.) masterbatch (900 μL complete medium+100 μL CCK-8 detection reagent) with DMEM complete medium at 9:1 to prepare CCK-8 working solution.
(§6) Take out the 96-well cell culture plate and removed the supernatant. Before detection, the 96-well plate was added with 100 μL CCK-8 working solution, incubated in the cell culture incubator at 37° C. 5% CO2 for 2 h, and analyzed by plate reader. The cell viability was calculated to reflect the cytotoxicity.

DC2.4 cells [2] = assay: Cell transfection assay (D-Luciferin), DC2.4; assay type: cell-based
Description: as §1, §2, §3, §4
D-Luciferin (Biohub International Trade Co., Ltd.) stock solution (9900 μL of complete medium+100 μL of 25 mg/mL of D-Luciferin stock solution) was diluted with DMEM complete medium at 99:1 to make a working solution at the concentration of 250 μg/mL (25 μg per well).
The 96-well cell culture plate was taken out and the supernatant was removed. Before imaging, the 96-well plate was added with 100 μL of D-Luciferin working solution, incubated at 37° C. for 5 min, and imaged and analyzed by the plate reader.

DC2.4 cells [3] = assay: Cytotoxicity assay (CCK-8), DC2.4; assay type: cell-based; details: formulation No. 2
Description: as §1, §2, §3, §4, §5, §6

CCCCCCCCCCCCOC(=O)C(O)CN(CCCN1CCN(CCCN(CC(O)C(=O)OCCCCCCCCCCCC)CC(O)C(=O)OCCCCCCCCCCCC)CC1)CC(O)C(=O)OCCCCCCCCCCCC (stereo not shown) [Compound L0191]
In vivo IVIS (mice; Table 2, IM, whole body scan): 8.97 × 10^7 | In vivo IVIS (liver) (mice; Table 2, IV, liver): 2.77 × 10^8 | In vivo IVIS (spleen) (mice; Table 2, IV, spleen): 1.03 × 10^8 | In vivo IVIS (mice; Table 4, IM): 2.12 × 10^7 | In vivo IVIS (mice; Table 4, IV): 9.64 × 10^8 | in vivo delivery efficiency as compared to the benchmark compound SM102 (mice; certain formulations, Table 2): superior in vivo delivery efficiency | osmotic pressure [1]: 2139 | cellular toxicity (in words) (A549 cells; all tested formulations, even at high doses, e.g., 300 ng/well): low to no cellular toxicity | A549 cellular tox (% cells alive) (A549 cells; formulation No. 1, 50 ng/well): 103.42% | A549 cellular tox (% cells alive) (A549 cells; formulation No. 1, 100 ng/well): 105.39% | A549 cellular tox (% cells alive) (A549 cells; formulation No. 1, 200 ng/well): 103.90% | A549 cellular tox (% cells alive) (A549 cells; formulation No. 1, 300 ng/well): 103.50% | A549 cellular tox (% cells alive) (A549 cells; formulation No. 2, 50 ng/well): 103.82% | A549 cellular tox (% cells alive) (A549 cells; formulation No. 2, 100 ng/well): 105.86% | A549 cellular tox (% cells alive) (A549 cells; formulation No. 2, 200 ng/well): 109.06% | A549 cellular tox (% cells alive) (A549 cells; formulation No. 2, 300 ng/well): 104.35% | DC2.4 cell transfection/RLU (DC2.4 cells [2]; formulation No. 1, 50 ng/well): 44580.00 RLU | DC2.4 cell transfection/RLU (DC2.4 cells [2]; formulation No. 1, 100 ng/well): 38457.67 RLU | DC2.4 cell transfection/RLU (DC2.4 cells [2]; formulation No. 1, 200 ng/well): 51212.00 RLU | DC2.4 cell transfection/RLU (DC2.4 cells [2]; formulation No. 1, 300 ng/well): 49462.00 RLU | DC2.4 cell transfection/RLU (DC2.4 cells [2]; formulation No. 2, 50 ng/well): 22385.67 RLU | DC2.4 cell transfection/RLU (DC2.4 cells [2]; formulation No. 2, 100 ng/well): 31266.67 RLU | DC2.4 cell transfection/RLU (DC2.4 cells [2]; formulation No. 2, 200 ng/well): 45175.33 RLU | DC2.4 cell transfection/RLU (DC2.4 cells [2]; formulation No. 2, 300 ng/well): 66928.33 RLU | DC2.4 cellular tox (% cells alive) (DC2.4 cells [3]; 50 ng/well): 95.97% | DC2.4 cellular tox (% cells alive) (DC2.4 cells [3]; 100 ng/well): 87.33% | DC2.4 cellular tox (% cells alive) (DC2.4 cells [3]; 200 ng/well): 75.79% | DC2.4 cellular tox (% cells alive) (DC2.4 cells [3]; 300 ng/well): 92.20%
